Experimental data: the NIST ThermoML archive (doi:10.1021/je400539h)
Where “and” joins values, the source holds several entries; their conditions need not be identical. Equal values may be shown once.

Legend:
[1] = 101 kPa, Liquid
[2] = xn = mol fraction of the nth substance listed; conditions: 101 kPa, Liquid

C1COCCO1 [1,4-dioxane]
[1]
Conditions	mass density [kg/m3]	speed of sound [m/s]	viscosity [mPa·s]
298.15 K	1028.2	1328	1.159
303.15 K	1022.7	1320	1.087
308.15 K	1017.4	1312	1.013
313.15 K	1011.1	1304	0.934

C=COCCCC [1-(ethenyloxy)butane]
[1]
Conditions	mass density [kg/m3]	speed of sound [m/s]	viscosity [mPa·s]
298.15 K	780.2	1096	0.4
303.15 K	774.1	1084	0.387
308.15 K	768.2	1072	0.365
313.15 K	763.3	1060	0.354

COc1ccccc1 [anisole]
[1]
Conditions	mass density [kg/m3]	speed of sound [m/s]	viscosity [mPa·s]
298.15 K	993.6	1396	0.97
303.15 K	989.4	1380	0.917
308.15 K	984.6	1364	0.863
313.15 K	980	1348	0.803

CCCCCCOC(C)=O [hexyl ethanoate]
[1]
Conditions	mass density [kg/m3]	speed of sound [m/s]	viscosity
298.15 K	868.3	1236	1.071 mPa·s
303.15 K	863.9	1216	0.982 mPa·s
308.15 K	859.8	1196	0.898 mPa·s and 0.899 mPa·s
313.15 K	855	1176	0.836 mPa·s

CCCCCCOC(C)=O [hexyl ethanoate] + C1COCCO1
[2]
Conditions	mass density [kg/m3]	speed of sound [m/s]	viscosity [mPa·s]
298.15 K, x1 = 0.0546	1015	1312	1.143
298.15 K, x1 = 0.1152	1000.7	1292	1.131
298.15 K, x1 = 0.1825	985.9	1280	1.119
298.15 K, x1 = 0.2572	970.6	1268	1.106
298.15 K, x1 = 0.3416	954.6	1256	1.096
298.15 K, x1 = 0.4094	942.8	1248	1.093
298.15 K, x1 = 0.4773	931.9	1240	1.088
298.15 K, x1 = 0.5836	916.5	1236	1.08
298.15 K, x1 = 0.7044	900.8	1236	1.077
298.15 K, x1 = 1	868.3	1236	1.071
303.15 K, x1 = 0.0546	1009	1300	1.076
303.15 K, x1 = 0.1152	994.8	1280	1.063
303.15 K, x1 = 0.1825	979.9	1268	1.049
303.15 K, x1 = 0.2572	964.6	1256	1.037
303.15 K, x1 = 0.3416	948.8	1244	1.026
303.15 K, x1 = 0.4094	937.1	1236	1.019
303.15 K, x1 = 0.4773	926.4	1228	1.014
303.15 K, x1 = 0.5836	911.1	1224	1.005
303.15 K, x1 = 0.7044	895.7	1224	0.997
303.15 K, x1 = 1	863.9	1216	0.982
308.15 K, x1 = 0.0546	1003.4	1288	0.987
308.15 K, x1 = 0.1152	988.9	1268	0.975
308.15 K, x1 = 0.1825	974	1256	0.962
308.15 K, x1 = 0.2572	958.8	1244	0.951
308.15 K, x1 = 0.3416	943.2	1232	0.942
308.15 K, x1 = 0.4094	931.7	1224	0.935
308.15 K, x1 = 0.4773	921.1	1216	0.93
308.15 K, x1 = 0.5836	906	1212	0.921
308.15 K, x1 = 0.7044	890.8	1212	0.913
308.15 K, x1 = 1	859.8	1196	0.898
313.15 K, x1 = 0.0546	996.8	1280	0.935
313.15 K, x1 = 0.1152	982.2	1256	0.924
313.15 K, x1 = 0.1825	967.3	1244	0.912
313.15 K, x1 = 0.2572	952.3	1232	0.9
313.15 K, x1 = 0.3416	937	1216	0.889
313.15 K, x1 = 0.4094	925.7	1208	0.88
313.15 K, x1 = 0.4773	915.2	1204	0.874
313.15 K, x1 = 0.5836	900.3	1200	0.864
313.15 K, x1 = 0.7044	885.2	1200	0.855
313.15 K, x1 = 1	855	1176	0.836

CCCCCCOC(C)=O [hexyl ethanoate] + C=COCCCC
[2], x1 = 1
Conditions	mass density [kg/m3]	speed of sound [m/s]	viscosity [mPa·s]
298.15 K	868.3	1236	1.071
303.15 K	863.9	1216	0.982
308.15 K	859.8	1196	0.899
313.15 K	855	1176	0.836

CCCCCCOC(C)=O [hexyl ethanoate] + COc1ccccc1
[2]
Conditions	mass density [kg/m3]	speed of sound [m/s]	viscosity [mPa·s]
298.15 K, x1 = 0.0698	979.8	1376	1.022
298.15 K, x1 = 0.1417	969.7	1360	1.031
298.15 K, x1 = 0.221	959	1344	1.038
298.15 K, x1 = 0.3061	947.7	1328	1.047
298.15 K, x1 = 0.398	935.8	1312	1.054
298.15 K, x1 = 0.4979	923.4	1300	1.058
298.15 K, x1 = 0.606	910.5	1284	1.061
298.15 K, x1 = 0.7254	896.9	1268	1.065
298.15 K, x1 = 0.8556	882.9	1252	1.07
298.15 K, x1 = 1	868.3	1236	1.071
303.15 K, x1 = 0.0698	975	1360	0.932
303.15 K, x1 = 0.1417	964.7	1340	0.94
303.15 K, x1 = 0.221	953.8	1324	0.95
303.15 K, x1 = 0.3061	942.6	1304	0.959
303.15 K, x1 = 0.398	930.8	1288	0.967
303.15 K, x1 = 0.4979	918.4	1272	0.972
303.15 K, x1 = 0.606	905.5	1260	0.975
303.15 K, x1 = 0.7254	891.9	1244	0.98
303.15 K, x1 = 0.8556	878	1232	0.983
303.15 K, x1 = 1	863.9	1216	0.982
308.15 K, x1 = 0.0698	968.1	1340	0.86
308.15 K, x1 = 0.1417	957.8	1320	0.872
308.15 K, x1 = 0.221	947.1	1296	0.878
308.15 K, x1 = 0.3061	936.2	1280	0.886
308.15 K, x1 = 0.398	925	1264	0.894
308.15 K, x1 = 0.4979	913	1248	0.898
308.15 K, x1 = 0.606	900.3	1236	0.901
308.15 K, x1 = 0.7254	886.8	1224	0.903
308.15 K, x1 = 0.8556	873.1	1208	0.902
308.15 K, x1 = 1	859.8	1196	0.898
313.15 K, x1 = 0.0698	961.6	1320	0.779
313.15 K, x1 = 0.1417	951.2	1296	0.791
313.15 K, x1 = 0.221	940.5	1272	0.802
313.15 K, x1 = 0.3061	929.8	1252	0.811
313.15 K, x1 = 0.398	918.6	1236	0.823
313.15 K, x1 = 0.4979	906.8	1220	0.828
313.15 K, x1 = 0.606	894.4	1204	0.833
313.15 K, x1 = 0.7254	881.2	1192	0.838
313.15 K, x1 = 0.8556	867.8	1184	0.84
313.15 K, x1 = 1	855	1176	0.836

C1CCOC1 [tetrahydrofuran]
[1]
Conditions	mass density [kg/m3]	speed of sound [m/s]	viscosity [mPa·s]
298.15 K	881.5	1268	0.45
303.15 K	878.7	1248	0.439
308.15 K	873	1228	0.429
313.15 K	866.9	1212	0.404

C1CCOC1 [tetrahydrofuran] + CCCCCCOC(C)=O
[2], x2 = 0
Conditions	mass density [kg/m3]	speed of sound [m/s]	viscosity [mPa·s]
298.15 K	881.5	1268	0.45
303.15 K	878.7	1248	0.439
308.15 K	873	1228	0.429
313.15 K	866.9	1212	0.404
